In one assay the target is T1, human NK1R (Homo sapiens, UniProt P25103).
T1 construct: expressed in transfected cells
Kind of assay: Binding assay of human NK1R expressed in COS or CHO cells, displacement of 125I-substance P (Table 1, hNK1). The method, then: (§1) A. Receptor Expression in COS
(§2) To express the cloned human neurokinin-1 receptor (NK 1R) transiently in COS, the cDNA for the human NK 1R was cloned into the expression vector pCDM9 which was derived from pCDM 8 (INVITROGEN) by inserting the ampicillin resistance gene (nucleotide 1973 to 2964 from BLUESCRIPT SK+) into the Sac II site. Transfection of 20 μg of the plasmid DNA into 10 million COS cells was achieved by electroporation in 800 μl of transfection buffer (135 mM NaCl, 1.2 mM CaCl2, 1.2 mM MgCl2, 2.4 mM K2 HPO4, 0.6 mM KH2 PO4, 10 mM glucose, 10 mM HEPES pH 7.4) at 260 V and 950 uF using the IBI GENEZAPPER (IBI, New Haven, Conn.). The cells were incubated in 10% fetal calf serum, 2 mM glutamine, 100 U/ml penicillin-streptomycin, and 90% DMEM media (GIBCO, Grand Island, N.Y.) in 5% CO2 at 37° C. for three days before the binding assay. Similar methods were used to express the NK2 receptor.
(§3) B. Stable Expression in CHO
(§4) To establish a stable cell line expressing the cloned human NK1R, the cDNA was subcloned into the vector pRcCMV (INVITROGEN). Transfection of 20 μg of the plasmid DNA into CHO cells was achieved by electroporation in 800 μl of transfection buffer suplemented with 0.625 mg/ml Herring sperm DNA at 300 V and 950 uF using the IBI GENEZAPPER (IBI). The transfected cells were incubated in CHO media (10% fetal calf serum, 100 U/ml pennicilin-streptomycin, 2 mM glutamine, 1/500 hypoxanthine-thymidine(ATCC), 90% IMDM media (JRH BIOSCIENCES, Lenexa, Kans.), 0.7 mg/ml G418 (GIBCO)) in 5% CO2 at 37° C. until colonies were visible. Each colony was separated and propagated. The cell clone with the highest number of human NK1R was selected for subsequent applications such as drug screening. Similar methods were used to express the human NK2 receptor.
(§5) C. Assay Protocol using COS or CHO The binding assay of human NK1R expressed in either COS or CHO cells is based on the use of ^125 I-substance P (^125 I-SP, from DU PONT, Boston, Mass.) as a radioactively labeled ligand which competes with unlabeled substance P or any other ligand for binding to the human NK1R. […] In the binding assay, 500 μl of cells were added to a tube containing 20 μl of 1.5 to 0.25 nM of ^125 I-SP and 5 μl of unlabeled substance P or any other test compound in DMSO. The tubes were incubated at 4° C. or at room temperature for 1 hour with gentle shaking. The bound radioactivity was separated from unbound radioactivity by GF/C filter (BRANDEL, Gaithersburg, Md.) which was pre-wetted with 0.1% polyethylenimine. The filter was washed with 3 ml of wash buffer (50 mM Tris pH 7.5, 5 mM MnCl2, 150 mM NaCl) three times and its radioactivity was determined by gamma counter. A similar assay was used for NK2 except ^125 I-NKA was used as the ligand.
A general note: Displacement assays read how much labelled ligand stays bound in the presence of the test substance.

For another assay, the target named is T2, human NK2 receptor (Homo sapiens, UniProt P21452).
T2 construct: expressed in transfected cells
T2 sequence (P21452 1-398): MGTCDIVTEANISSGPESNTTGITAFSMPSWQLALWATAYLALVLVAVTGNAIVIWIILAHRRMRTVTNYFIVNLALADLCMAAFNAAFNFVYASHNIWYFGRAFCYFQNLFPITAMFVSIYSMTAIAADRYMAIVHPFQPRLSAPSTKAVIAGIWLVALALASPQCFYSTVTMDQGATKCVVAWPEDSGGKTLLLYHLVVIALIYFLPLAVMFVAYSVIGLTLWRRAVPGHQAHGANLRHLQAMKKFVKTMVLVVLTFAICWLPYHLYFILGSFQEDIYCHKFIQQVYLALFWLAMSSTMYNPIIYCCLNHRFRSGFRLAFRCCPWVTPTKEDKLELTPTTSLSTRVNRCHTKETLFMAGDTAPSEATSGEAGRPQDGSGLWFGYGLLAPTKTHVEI
Kind of assay: Binding assay of NK2 receptor expressed in COS or CHO cells, displacement of 125I-NKA (Table 1, hNK2). As to the method: as §1, §2, §3, §4, §5

[1] abbreviates: human NK1 receptor, 125I-substance P ligand, read-out: hNK1 (IC50 nM).
Where [2] appears, read: human NK2 receptor, 125I-NKA ligand, read-out: hNK2 (IC50 nM).

SMILES strings stand for the structures. Where two headings read alike, the source gives them in different places. Bounds are passed on as bounds.

T1 sequence (P25103 whole entry): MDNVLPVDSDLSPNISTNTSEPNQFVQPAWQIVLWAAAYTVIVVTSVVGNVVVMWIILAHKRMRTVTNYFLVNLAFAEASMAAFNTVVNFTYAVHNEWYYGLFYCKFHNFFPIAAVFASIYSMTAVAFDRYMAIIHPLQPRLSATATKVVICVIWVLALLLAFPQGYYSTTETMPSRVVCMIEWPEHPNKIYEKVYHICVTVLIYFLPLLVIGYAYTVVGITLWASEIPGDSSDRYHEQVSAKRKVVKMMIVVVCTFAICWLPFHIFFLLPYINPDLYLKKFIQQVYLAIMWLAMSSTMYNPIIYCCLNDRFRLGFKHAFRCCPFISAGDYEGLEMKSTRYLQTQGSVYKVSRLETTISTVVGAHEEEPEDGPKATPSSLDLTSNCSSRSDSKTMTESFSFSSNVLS

For the molecule `CN(Cc1ccccc1)C(=O)[C@H](Cc1c[nH]c2ccccc12)NC(=O)N1CCC2(C=Cc3ccccc32)CC1` [Example 1, N-Benzyl-N-methyl-2-(S)-((spiro-1H-indene-1,4'-piperidino)-carbonyl-amino)-3-(3-indolyl)propionamide], the half-inhibitory concentration (IC50) (commonly the midpoint of a concentration-inhibition curve) turned out to be 40 nM at human NK1R (setting [1]) and 10 nM on human NK2 receptor (setting [2]).

On to `CS(=O)(=O)N1CC2(CCN(C(=O)N[C@@H](Cc3c[nH]c4ccccc34)C(=O)NCc3ccccc3)CC2)c2ccccc21` [Example 2, N-Benzyl-2-(S)-((1-methanesulfonyl-spiroindoline-3,4'-piperidino)-carbonyl-amino)-3-(3-indolyl)propionamide], for which the IC50 was determined as 70 nM on human NK1R (setting [1]) and 40 nM on human NK2 receptor (setting [2]).

With `O=C(OCc1cc(C(F)(F)F)cc(C(F)(F)F)c1)[C@H](Cc1c[nH]c2ccccc12)NC(=O)N1CCC2(C=Cc3ccccc32)CC1` [Example 3, 3,5-Bistrifluoromethylbenzyl 2-(S)-((spiro-1H-indene-1,4'-piperidino)-carbonyl-amino)-3-(3-indolyl)propionate], the IC50 at human NK1R (setting [1]) is 1 nM; on human NK2 receptor (setting [2]), over 1000 nM.

On to `CN(Cc1ccccc1)C(=O)[C@H](Cc1c[nH]c2ccccc12)NC(=O)N1CCC2(CCc3ccccc32)CC1` [Example 4, N-Benzyl-N-methyl-2-(S)-((spiroindane-1,4'-piperidino)-carbonyl-amino)-3-(3-indolyl)propionamide], for which the IC50 amounted to 50 nM at human NK1R (setting [1]) and 8 nM at human NK2 receptor (setting [2]).

For the molecule `CN(Cc1ccccc1)C(=O)[C@H](Cc1c[nH]c2ccccc12)NC(=O)N1CCC2(CC1)CN(S(C)(=O)=O)c1ccccc12` [Example 5, N-Benzyl-N-methyl-2-(S)-((1-methanesulfonyl-spiroindoline-3,4'-piperidino)-carbonyl-amino)-3-(3-indolyl)propionamide], the IC50 on human NK1R (setting [1]) worked out at 20 nM; at human NK2 receptor (setting [2]), 12 nM.

Consider `CC(=O)N1CC2(CCN(C(=O)N[C@@H](Cc3c[nH]c4ccccc34)C(=O)N(C)Cc3ccccc3)CC2)c2ccccc21` [Example 6, N-Benzyl-N-methyl-2-(S)-((1-acetylspiroindoline-3,4'-piperidino)-carbonyl-amino)-3-(3-indolyl)propionamide], for which the IC50 at human NK1R (setting [1]) was determined as 15 nM; on human NK2 receptor (setting [2]), 30 nM.

In the case of `CN(Cc1ccccc1)C(=O)[C@H](Cc1c[nH]c2ccccc12)NC(=O)N1CCC(c2ccccc2)CC1` [Example 7], the IC50 at human NK1R (setting [1]) came to 60 nM; on human NK2 receptor (setting [2]), 50 nM.

For `CN(Cc1ccccc1)C(=O)[C@H](Cc1c[nH]c2ccccc12)NC(=O)N1CCC(Cc2ccccc2)CC1` [Example 8, N-Benzyl-N-methyl-2-(S)-((4-benzylpiperidino)-carbonyl-amino)-3-(3-indolyl)propionamide], the IC50 at human NK1R (setting [1]) is 90 nM; at human NK2 receptor (setting [2]), 25 nM.

Consider `CC(=O)NC1(c2ccccc2)CCN(C(=O)N[C@@H](Cc2c[nH]c3ccccc23)C(=O)N(C)Cc2ccccc2)CC1` [Example 9, N-Benzyl-N-methyl-2-(S)-(((4-phenyl-4-acetylamino)piperidino)-carbonyl-amino)-3-(3-indolyl)propionamide], for which the IC50 on human NK1R (setting [1]) was 60 nM; at human NK2 receptor (setting [2]) it was over 100 nM.

Consider `CN(Cc1ccccc1)C(=O)[C@H](Cc1c[nH]c2ccccc12)NC(=O)N1CCN(Cc2ccccc2)CC1` [Example 10, N-Benzyl-N-methyl-2-(S)-((4-benzylpiperazino)-carbonyl-amino)-3-(3-indolyl)propionamide], for which the results for the IC50 at human NK1R (setting [1]) and on human NK2 receptor (setting [2]) were 60 nM and 100 nM, respectively.

Turning to `CN(Cc1ccccc1)C(=O)[C@H](Cc1c[nH]c2ccccc12)NC(=O)N1CCC(N2C(=O)NCc3ccccc32)CC1` [Example 11], the IC50 on human NK1R is 100 nM; on human NK2 receptor, 60 nM.

`COc1ccccc1N1CCN(C(=O)N[C@@H](Cc2c[nH]c3ccccc23)C(=O)N(C)Cc2ccccc2)CC1` [Example 12, N-Benzyl-N-methyl-2-(S)-((4-(2-methoxyphenyl)piperazino)-carbonyl-amino)-3-(3-indolyl)propionamide]: the 50% inhibitory concentration (IC50) on human NK1R (setting [1]) stood at 20 nM; on human NK2 receptor (setting [2]), 25 nM.

On to `Cc1ccccc1N1CCN(C(=O)N[C@@H](Cc2c[nH]c3ccccc23)C(=O)N(C)Cc2ccccc2)CC1` [Example 13, N-Benzyl-N-methyl-2-(S)-((4-(2-methylphenyl)piperazino)-carbonyl-amino)-3-(3-indolyl)propionamide], for which the IC50 turned out to be 30 nM at human NK1R (setting [1]) and 15 nM at human NK2 receptor (setting [2]).

With `O=C(Nc1ccccc1)[C@H](Cc1c[nH]c2ccccc12)NC(=O)N1CCC2(CCc3ccccc32)CC1` [Example 14, N-Phenyl-2-(S)-((spiroindane-1,4'-piperidino)-carbonyl-amino)-3-(3-indolyl)propionamide], the IC50 at human NK1R (setting [1]) is over 1000 nM; on human NK2 receptor (setting [2]), 650 nM.

Turning to `O=C(NCc1ccccc1)[C@H](Cc1c[nH]c2ccccc12)NC(=O)N1CCC2(CCc3ccccc32)CC1` [Example 15, N-Benzyl-2-(S)-((spiroindane-1,4'-piperidino)-carbonyl-amino)-3-(3-indolyl)propionamide], the IC50 was found to be 100 nM on human NK1R (setting [1]) and 35 nM at human NK2 receptor (setting [2]).

Take `Cc1ccccc1CNC(=O)[C@H](Cc1c[nH]c2ccccc12)NC(=O)N1CCC2(CCc3ccccc32)CC1` [Example 16, N-(2-Methylbenzyl)-2-(S)-((spiroindane-1,4'-piperidino)-carbonyl-amino)-3-(3-indolyl)propionamide]: the IC50 at human NK1R (setting [1]) was determined as 100 nM; on human NK2 receptor (setting [2]), 15 nM.

`Cc1cccc(CNC(=O)[C@H](Cc2c[nH]c3ccccc23)NC(=O)N2CCC3(CCc4ccccc43)CC2)c1` [Example 17, N-(3-Methylbenzyl)-2-(S)-((spiroindane-1,4'-piperidino)-carbonyl-amino)-3-(3-indolyl)propionamide]: the values for the IC50 on human NK1R (setting [1]) and at human NK2 receptor (setting [2]) were 60 nM and 65 nM, respectively.

As for `Cc1ccc(CNC(=O)[C@H](Cc2c[nH]c3ccccc23)NC(=O)N2CCC3(CCc4ccccc43)CC2)cc1` [Example 18, N-(4-Methylbenzyl)-2-(S)-((spiroindane-1,4'-piperidino)-carbonyl-amino)-3-(3-indolyl)propionamide], the values for the IC50 at human NK1R (setting [1]) and on human NK2 receptor (setting [2]) were 100 nM and 200 nM, respectively.

In the case of `O=C(NCCc1ccccc1)[C@H](Cc1c[nH]c2ccccc12)NC(=O)N1CCC2(CCc3ccccc32)CC1` [Example 19], the IC50 on human NK1R (setting [1]) is 200 nM; at human NK2 receptor (setting [2]), 56 nM.

With `CCN(Cc1ccccc1)C(=O)[C@H](Cc1c[nH]c2ccccc12)NC(=O)N1CCC2(CCc3ccccc32)CC1` [Example 20, N-Benzyl-N-ethyl-2-(S)-((spiroindane-1,4'-piperidino)-carbonyl-amino)-3-(3-indolyl)propionamide], the IC50 on human NK1R (setting [1]) was found to be 120 nM; on human NK2 receptor (setting [2]), 25 nM.

As to `C[C@H](NC(=O)[C@H](Cc1c[nH]c2ccccc12)NC(=O)N1CCC2(CCc3ccccc32)CC1)c1ccccc1` [Example 21, N-(1(S)-Phenylethyl)-2(S)-((spiroindane-1,4'-piperidino)-carbonyl-amino)-3-(3-indolyl)propionamide], the IC50 amounted to 80 nM at human NK1R (setting [1]) and 16 nM on human NK2 receptor (setting [2]).

`C[C@@H](NC(=O)[C@H](Cc1c[nH]c2ccccc12)NC(=O)N1CCC2(CCc3ccccc32)CC1)c1ccccc1` [Example 22, N-(1(R)-Phenylethyl)-2(S)-((spiroindane-1,4'-piperidino)-carbonyl-amino)-3-(3-indolyl)propionamide]: the IC50 worked out at 1000 nM at human NK1R (setting [1]) and 28 nM at human NK2 receptor (setting [2]).
